≈ marks a conversion by molar mass, not a printed value. Where “and” joins values, the source holds several entries; their conditions need not be identical. Equal values may be shown once.
Legend:
[1] = (§1) Modulation of mouse gamma secretase assessed as reduction in Abeta42 production
[2] = Clearance in human hepatocytes assessed per million cells; assay type: ADME, cell-based, Hepatocyte; details: read-out: CLH
[3] = Fraction unbound in mouse plasma; assay type: ADME, cell-free
[4] = Clearance in mouse hepatocytes assessed per million cells; assay type: ADME, cell-based, Hepatocyte; details: read-out: CLH
[5] = biological target: Phosphatidylinositol 4-kinase beta (Homo sapiens, UniProt Q9UBF8); experiment: Binding affinity to PIK4CB (unknown origin); assay type: ADME
[6] = Fraction unbound in human plasma; assay type: ADME, cell-free
[7] = Octanol/water distribution co-efficient, log D of the compound at pH 7.4; assay type: physicochemical
[8] = Solubility of compound by lyophilisation solubility assay; assay type: physicochemical
Gamma-secretase = experiment: (§2) Modulation of gamma secretase in human H4 cells over expressing human APP695 harboring K595N/M596L Swedish double mutant assessed as reduction in Abeta42 production after 24 hrs by Alphalisa assay; assay type: cell-based
Mus musculus [9] = organism: Mus musculus; experiment: as §1
hERG (KCNH2) = hERG (KCNH2) (Homo sapiens, UniProt Q12809); experiment: (§3) Inhibition of human ERG; details: human
[10] = biological target: Voltage-gated inwardly rectifying potassium channel KCNH2 (Homo sapiens, UniProt Q12809); experiment: as §3
Mus musculus [11] = experiment: In vivo modulation of gamma secretase in APP-Swedish transgenic mouse assessed as reduction in Abeta42 production by measuring remaining Abeta42 level at 3 mg/kg, po measured after 4 hrs by ELISA or AlphaLISA assay relative to control; assay type: functional
Keratinocyte = experiment: Phototoxicity in human Keratinocytes in presence of UVA at 320 to 400 nm; assay type: cell-based; details: light or radiation study
Mus musculus [12] = experiment: In vivo modulation of gamma secretase in APP-Swedish transgenic mouse assessed as reduction in Abeta42 production by measuring remaining Abeta42 level at 10 mg/kg, po measured after 4 hrs by ELISA or AlphaLISA assay relative to control; assay type: functional
[13] = Ratio of IC50 for dark toxicity in human Keratinocytes to IC50 for phototoxicity in human Keratinocytes in presence of UVA at 320 to 400 nm; assay type: cell-based, Keratinocyte; details: read-out: Ratio IC50
[14] = Covalent protein binding in human liver microsomes assessed per mg protein in presence of NADPH; assay type: ADME, Microsome
Melanocyte = experiment: Phototoxicity in human Melanocytes in presence of UVA at 320 to 400 nm; assay type: cell-based; details: light or radiation study
[15] = Ratio of IC50 for dark toxicity in human Melanocytes to IC50 for phototoxicity in human Melanocytes in presence of UVA at 320 to 400 nm; assay type: cell-based, Melanocyte; details: read-out: Ratio IC50
Mus musculus [16] = experiment: In vivo modulation of gamma secretase in APP-Swedish transgenic mouse assessed as reduction in Abeta42 production by measuring remaining Abeta42 level at 1 mg/kg, po measured after 4 hrs by ELISA or AlphaLISA assay relative to control; assay type: functional
[17] = biological target: Gamma-secretase (Homo sapiens) (UniProt Q96BI3+Q9NZ42+Q8WW43+P49768+Q92542+P49810); experiment: as §2; assay type: cell-based
[18] = Solubility of the compound in fasted state simulated intestinal fluid; assay type: physicochemical; details: simulated gi fluid
[19] = Solubility in fed state simulated intestinal fluids; assay type: physicochemical; details: simulated gi fluid
[20] = Thermodynamic solubility of the compound; assay type: physicochemical
[21] = Mutagenicity in Salmonella typhimurium by Ames test; assay type: toxicity; details: salmonella enterica subsp. enterica serovar typhimurium
[22] = Cytotoxicity against human embryonic stem cells assessed as reduction in cell viability; assay type: cell-based
[23] = Clearance in rat hepatocytes assessed per million cell; assay type: ADME, cell-based, Hepatocyte; details: read-out: CLH
[24] = Fraction unbound in rat plasma; assay type: ADME, cell-free
[25] = Fraction unbound in 10% fetal calf serum; assay type: ADME, cell-free, Bos taurus; details: cattle
Mus musculus [26] = experiment: In vivo modulation of gamma secretase in APP-Swedish transgenic mouse assessed as reduction in Abeta42 production by measuring remaining Abeta42 level at 30 mg/kg, po measured after 4 hrs by ELISA or AlphaLISA assay relative to control; assay type: functional
Mus musculus [27] = experiment: In vivo modulation of gamma secretase in po dosed APP-Swedish transgenic mouse assessed as reduction in total Abeta42 production level in brain administered as single dose by ELISA or AlphaLISA assay; assay type: functional, organism-based

Voltage-gated inwardly rectifying potassium channel KCNH2, sequence (Q12809 whole entry): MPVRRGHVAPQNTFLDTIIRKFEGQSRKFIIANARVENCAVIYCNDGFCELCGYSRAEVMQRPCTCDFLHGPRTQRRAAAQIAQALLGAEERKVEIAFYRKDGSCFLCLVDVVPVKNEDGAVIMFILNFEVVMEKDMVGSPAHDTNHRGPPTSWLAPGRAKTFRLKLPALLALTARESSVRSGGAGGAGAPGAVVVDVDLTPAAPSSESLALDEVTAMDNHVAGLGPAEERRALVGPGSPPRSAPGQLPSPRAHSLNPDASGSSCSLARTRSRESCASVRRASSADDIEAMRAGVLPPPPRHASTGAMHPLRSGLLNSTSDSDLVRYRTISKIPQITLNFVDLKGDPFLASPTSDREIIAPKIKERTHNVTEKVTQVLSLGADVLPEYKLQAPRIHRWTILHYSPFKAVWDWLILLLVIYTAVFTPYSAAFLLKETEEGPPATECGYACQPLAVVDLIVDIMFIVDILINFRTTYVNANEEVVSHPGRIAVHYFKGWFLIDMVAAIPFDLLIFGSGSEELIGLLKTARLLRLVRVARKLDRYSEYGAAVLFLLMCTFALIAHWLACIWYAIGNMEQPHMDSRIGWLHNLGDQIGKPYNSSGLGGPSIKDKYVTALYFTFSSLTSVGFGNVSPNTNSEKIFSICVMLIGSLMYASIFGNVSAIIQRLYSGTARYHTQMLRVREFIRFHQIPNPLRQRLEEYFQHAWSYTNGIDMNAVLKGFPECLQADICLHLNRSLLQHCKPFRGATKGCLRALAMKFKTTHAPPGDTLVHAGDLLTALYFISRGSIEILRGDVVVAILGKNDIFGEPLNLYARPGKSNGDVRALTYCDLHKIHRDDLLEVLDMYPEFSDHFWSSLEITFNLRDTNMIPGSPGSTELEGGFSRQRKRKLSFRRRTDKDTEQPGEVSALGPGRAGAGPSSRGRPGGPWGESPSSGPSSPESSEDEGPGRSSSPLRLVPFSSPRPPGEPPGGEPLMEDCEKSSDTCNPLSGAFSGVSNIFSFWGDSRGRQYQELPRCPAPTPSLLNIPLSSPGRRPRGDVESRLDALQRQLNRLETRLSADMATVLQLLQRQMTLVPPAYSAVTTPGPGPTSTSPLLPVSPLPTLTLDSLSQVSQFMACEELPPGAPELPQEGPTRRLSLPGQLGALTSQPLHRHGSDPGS
hERG (KCNH2), sequence (Q12809 whole entry): as above
Phosphatidylinositol 4-kinase beta, sequence (Q9UBF8 whole entry): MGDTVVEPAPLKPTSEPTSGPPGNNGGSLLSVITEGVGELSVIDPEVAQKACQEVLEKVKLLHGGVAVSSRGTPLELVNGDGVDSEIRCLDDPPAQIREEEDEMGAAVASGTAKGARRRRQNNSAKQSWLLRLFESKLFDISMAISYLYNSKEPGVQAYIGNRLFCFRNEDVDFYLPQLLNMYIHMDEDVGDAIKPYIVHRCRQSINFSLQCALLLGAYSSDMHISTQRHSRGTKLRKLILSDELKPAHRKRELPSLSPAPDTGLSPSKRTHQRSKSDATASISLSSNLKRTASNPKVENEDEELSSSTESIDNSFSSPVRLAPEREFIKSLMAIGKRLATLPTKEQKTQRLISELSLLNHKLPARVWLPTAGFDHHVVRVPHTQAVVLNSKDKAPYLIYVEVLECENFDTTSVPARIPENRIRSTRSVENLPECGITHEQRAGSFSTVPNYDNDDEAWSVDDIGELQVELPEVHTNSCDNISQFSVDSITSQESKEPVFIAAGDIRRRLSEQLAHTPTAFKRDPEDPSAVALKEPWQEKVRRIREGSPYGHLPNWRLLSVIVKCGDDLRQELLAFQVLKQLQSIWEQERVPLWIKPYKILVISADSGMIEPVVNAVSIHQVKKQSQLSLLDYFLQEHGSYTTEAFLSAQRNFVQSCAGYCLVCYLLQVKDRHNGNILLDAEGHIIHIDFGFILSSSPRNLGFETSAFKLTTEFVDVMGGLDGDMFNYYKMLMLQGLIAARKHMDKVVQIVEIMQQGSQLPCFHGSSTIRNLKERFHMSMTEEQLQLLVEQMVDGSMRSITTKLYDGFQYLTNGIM

SMILES	IC50 [1]	hepatocyte CLint [2]	fraction unbound [3]	hepatocyte CLint [4]	Kd [5]	fraction unbound [6]	logD [7]	solubility [8]	IC50 (Gamma-secretase)	other results
Cc1nnc(N2C[C@H]3CC[C@@H](C2)[C@@H]3Nc2nc3c(OC(C)C(F)(F)F)ccc(C(F)(F)F)n3n2)o1 (stereo partly drawn)	20 nM	1 µL/min/1e6 cells	0.044	1.6 µL/min/1e6 cells	> 40000 nM	0.028	3.58	77 µg/mL (≈ 152 µM)	27 nM	–
Cc1nsc(N2C[C@H]3CC[C@@H](C2)[C@@H]3Nc2nc3c(OCC4COC4)cccn3n2)n1	–	–	–	–	–	–	2.26	456 µg/mL (≈ 1070 µM)	49 nM	–
Cc1noc(N2C[C@H]3CC[C@@H](C2)[C@@H]3Nc2nc3c(OCC(F)(F)C(F)(F)F)cccn3n2)n1	17 nM	1 µL/min/1e6 cells	0.061	11 µL/min/1e6 cells	–	0.055	3.57	144 µg/mL (≈ 304 µM)	20 nM	–
COc1cccn2nc(N[C@@H]3[C@@H]4CC[C@H]3CN(c3nc(C)ns3)C4)nc12	–	10 µL/min/1e6 cells	0.16	27 µL/min/1e6 cells	–	0.12	2.59	396 µg/mL (≈ 1070 µM)	231 nM	–
Cc1nsc(N2C[C@H]3CC[C@@H](C2)[C@@H]3Nc2nc3c(OCC(F)(F)F)cccn3n2)n1	9 nM	1.3 µL/min/1e6 cells	0.06 to 0.101	4 to 6.4 µL/min/1e6 cells	150 nM	0.028	3.17	198 µg/mL (≈ 451 µM)	21 nM	fIC50 (Mus musculus [9]): 5 nM; IC20 (hERG (KCNH2)): 4500 nM; IC50 [10]: > 10000 nM; remaining Abeta42 level (% of control) (Mus musculus [11]): 33%; IC50 (Keratinocyte): 443000 nM; remaining Abeta42 level (% of control) (Mus musculus [12]): 15%; selectivity ratio [13]: 1.1; PB [14]: 30 pmol; IC50 (Melanocyte): 443000 nM; selectivity ratio [15]: 1.1; Activity (Mus musculus [16]): 59%; fIC50 [17]: 12 nM
O=S(=O)(N[C@H]1CC[C@@](c2cc(F)ccc2F)(S(=O)(=O)c2ccc(Cl)cc2)CC1)C(F)(F)F	–	–	–	–	–	–	–	–	–	remaining Abeta42 level (% of control) (Mus musculus [12]): 24 - 28%
Cc1cc(N2C[C@H]3CC[C@@H](C2)[C@@H]3Nc2nc3c(OCC(F)(F)F)ccc(C(F)(F)F)n3n2)sn1	2 nM	2 µL/min/1e6 cells	–	19 µL/min/1e6 cells	40000 to 100000 nM	0.002	4.1	0.6 µg/mL (≈ 1.18 µM)	2 nM	–
Cc1cc(N2C[C@H]3CC[C@@H](C2)[C@@H]3Nc2nc3c(OCC(F)F)ccc(C(F)(F)F)n3n2)ncn1	11 nM	2.3 µL/min/1e6 cells	0.017	9.4 µL/min/1e6 cells	23000 nM	0.028	3.9	88 µg/mL (≈ 182 µM)	21 nM	fIC50 (Mus musculus [9]): 7 nM; IC20 (hERG (KCNH2)): 1400 nM; IC50 [10]: 4500 nM; solubility [18]: 13 µg/mL (≈ 26.9 µM); solubility [19]: 466 µg/mL (≈ 964 µM); IC50 (Keratinocyte): 31000 nM; Therm solubility [20]: 3 µg/mL; Activity [21]: Non-Toxic; Activity [22]: Non-Toxic; IC50 (Melanocyte): 31000 nM; hepatocyte CLint [23]: 5.8 µL/min/1e6 cells; fraction unbound [24]: 0.01; fIC50 [17]: 12 nM
Cc1cc(N2C[C@H]3CC[C@@H](C2)[C@@H]3Nc2nc3c(O[C@@H](C)C(F)(F)F)cccn3n2)sn1	–	3.1 µL/min/1e6 cells	0.034	36 µL/min/1e6 cells	85 nM	0.01	3.81	6.3 µg/mL (≈ 13.9 µM)	6 nM	–
Cc1nsc(N2C[C@H]3CC[C@@H](C2)[C@@H]3Nc2nc3c(OCCC(F)(F)F)cccn3n2)n1	–	1.3 µL/min/1e6 cells	0.0521	21 µL/min/1e6 cells	–	0.03	3.36	1.7 µg/mL (≈ 3.75 µM)	14 nM	–
Cc1nsc(N2C[C@H]3CC[C@@H](C2)[C@@H]3Nc2nc3c(O[C@@H](C)C(F)(F)F)cccn3n2)n1	–	3.1 µL/min/1e6 cells	0.06	10 µL/min/1e6 cells	–	0.028	3.69	78 µg/mL (≈ 172 µM)	16 nM	–
Cc1nnc(N2C[C@H]3CC[C@@H](C2)[C@@H]3Nc2nc3c(OC(C)C(F)(F)F)cccn3n2)o1 (stereo partly drawn)	–	–	–	–	–	–	2.68	346 µg/mL (≈ 791 µM)	108 nM	–

Further molecules by falling IC50 (Gamma-secretase), results first:

IC50 [1]	hepatocyte CLint [2]	fraction unbound [3]	hepatocyte CLint [4]	Kd [5]	fraction unbound [6]	logD [7]	solubility [8]	IC50 (Gamma-secretase)	SMILES	other results
> 400 nM	–	0.095	4.6 µL/min/1e6 cells	–	–	1.79	55 to 265 µg/mL (≈ 130 to 626 µM)	114 nM	Cc1noc(N2C[C@H]3CC[C@@H](C2)[C@@H]3Nc2nc3c(OCC(F)(F)F)cccn3n2)n1	–
–	–	–	–	–	–	3.3	102 µg/mL (≈ 240 µM)	61 nM	Cc1nsc(N2C[C@H]3CC[C@@H](C2)[C@@H]3Nc2nc3c(OC(F)(F)F)cccn3n2)n1	–
38 nM	–	0.0029	–	–	0.0003	–	–	55 nM	Cc1nsc(N2CC[C@@H](Nc3nc4c(-c5ccc(F)c(F)c5F)cccn4n3)C(F)(F)C2)n1	fIC50 (Mus musculus [9]): 2.3 nM; remaining Abeta42 level (% of control) (Mus musculus [11]): 64%; fraction unbound [25]: 0.06; Activity (Mus musculus [26]): 31%; remaining Abeta42 level (% of control) (Mus musculus [12]): 46%; PB [14]: 149 pmol; fIC50 [17]: 3.3 nM; fIC50 (Mus musculus [27]): 8 nM; IC50 (Mus musculus [27]; Mus musculus): 2870 nM
20 nM and 12 nM	1 µL/min/1e6 cells	0.031	8.5 µL/min/1e6 cells	> 40000 nM	0.017	3.79	55 µg/mL (≈ 112 µM)	33 nM	Cc1noc(N2C[C@H]3CC[C@@H](C2)[C@@H]3Nc2nc3c(OCC(F)(F)F)ccc(C(F)(F)F)n3n2)n1	IC20 (hERG (KCNH2)): 3500 nM; IC50 [10]: 8750 nM; solubility [18]: 12 µg/mL (≈ 24.4 µM); solubility [19]: 92 µg/mL (≈ 187 µM); IC50 (Keratinocyte): 33000 nM; Therm solubility [20]: 5 µg/mL; Activity [21]: Non-Toxic; Activity [22]: Non-Toxic; IC50 (Melanocyte): 33000 nM; hepatocyte CLint [23]: 6.9 µL/min/1e6 cells; fraction unbound [24]: 0.046; fIC50 [17]: 21 nM
21 nM	1 µL/min/1e6 cells	0.02	9 µL/min/1e6 cells	250 nM	0.012	4.04	11 µg/mL (≈ 22.6 µM)	24 nM	FC(F)(F)COc1cccn2nc(N[C@@H]3[C@@H]4CC[C@H]3CN(c3ccnc(C(F)(F)F)c3)C4)nc12	–
–	–	–	–	–	–	3.76 to 3.9	0.2 to 1 µg/mL (≈ 0.428 to 2.14 µM)	14 nM	Cc1nsc(N2C[C@H]3CC[C@@H](C2)[C@@H]3Nc2nc3c(OCCCC(F)(F)F)cccn3n2)n1	–
3 nM	4 µL/min/1e6 cells	0.032	34 µL/min/1e6 cells	–	0.02	4.1	11 µg/mL (≈ 23.3 µM)	7 nM	Cc1cc(N2C[C@H]3CC[C@@H](C2)[C@@H]3Nc2nc3c(OCC(F)(F)C(F)(F)F)cccn3n2)on1	–
4 nM	3.3 µL/min/1e6 cells	0.018	15 µL/min/1e6 cells	120 nM	0.017	3.9 to 3.99	31 µg/mL (≈ 70.7 µM)	4 nM	Cc1cc(N2C[C@H]3CC[C@@H](C2)[C@@H]3Nc2nc3c(OCC(F)(F)F)cccn3n2)sn1	fIC50 (Mus musculus [9]): 3 nM; IC20 (hERG (KCNH2)): 900 nM; IC50 [10]: 2900 nM; remaining Abeta42 level (% of control) (Mus musculus [11]): >=47 - 50%; IC50 (Keratinocyte): > 137000 nM; remaining Abeta42 level (% of control) (Mus musculus [12]): >50%; selectivity ratio [13]: 1; PB [14]: 96 pmol; IC50 (Melanocyte): > 137000 nM; selectivity ratio [15]: 1; Activity (Mus musculus [16]): 75%; fIC50 [17]: 3 nM

Source: ChEMBL document CHEMBL4619803, “Stepwise Design of γ-Secretase Modulators with an Advanced Profile by Judicious Coordinated Structural Replacements and an Unconventional Phenyl Ring Bioisostere” (J Med Chem, 2020)
